Earlier results, collected in patent US8221990B2, “Screening GPR12 receptor for substances having Nesfatin-1-like action, or which regulate Nesfatin-1 action” (Teijin Pharma Limited, priority 2007, dated 2012).

Molecular target: T1, GPR12 (Homo sapiens, UniProt P47775)
T1 sequence (P47775 1-334): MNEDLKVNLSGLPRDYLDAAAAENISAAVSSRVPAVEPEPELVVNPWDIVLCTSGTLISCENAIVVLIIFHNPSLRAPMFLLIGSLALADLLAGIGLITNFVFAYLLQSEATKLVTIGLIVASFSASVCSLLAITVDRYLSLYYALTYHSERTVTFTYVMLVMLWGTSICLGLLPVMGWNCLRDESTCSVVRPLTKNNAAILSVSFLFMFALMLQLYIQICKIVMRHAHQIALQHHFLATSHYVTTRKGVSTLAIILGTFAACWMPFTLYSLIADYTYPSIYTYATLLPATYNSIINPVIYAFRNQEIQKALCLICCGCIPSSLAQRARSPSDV
Settings: cells in which a GPR12 gene is introduced and expressed; cited from earlier work

SMILES | cytoplasmic calcium ion concentration
CCCCCCCCCCCCC/C=C/[C@@H](O)[C@@H](N)COP(=O)(O)O [S1P, sphingosine 1-phosphate] | increase in cytoplasmic calcium ion concentration occurs
CCCCCCCCCCCCC/C=C/[C@@H](O)[C@@H](N)COP(=O)([O-])OCC[N+](C)(C)C [SPC, sphingosylphosphorylcholine] | increase in cytoplasmic calcium ion concentration occurs
